Data on three molecules can be found in patent US8426437B2, “Pyrroloquinoline derivatives and their use as protein kinases inhibitors” (Pierre Fabre Medicament, priority 2005, dated 2013).

Each structure is given as a SMILES string.

What all share (assay type): biochemical
For assay [1], the target named is T1, Aurora-A (h) (Homo sapiens, UniProt O14965).
T1 construct: purchased Upstate
T1 sequence (O14965 1-403): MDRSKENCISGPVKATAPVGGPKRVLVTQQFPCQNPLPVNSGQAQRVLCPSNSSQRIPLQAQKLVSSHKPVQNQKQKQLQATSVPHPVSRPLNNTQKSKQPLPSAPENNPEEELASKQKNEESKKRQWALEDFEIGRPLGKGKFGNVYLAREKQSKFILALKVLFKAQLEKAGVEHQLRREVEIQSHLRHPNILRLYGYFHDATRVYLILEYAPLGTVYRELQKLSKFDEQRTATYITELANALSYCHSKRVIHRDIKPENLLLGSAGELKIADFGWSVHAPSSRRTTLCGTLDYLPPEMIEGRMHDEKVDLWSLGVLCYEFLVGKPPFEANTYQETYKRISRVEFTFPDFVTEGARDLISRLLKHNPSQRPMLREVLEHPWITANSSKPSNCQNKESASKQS
Briefly: Upstate kinase panel: Aurora-A. How it is done: (§1) These kinases are produced by Upstate and screened according to the respective protocols indicated by the supplier (http://www.upstate.com/features/kp_protocols.asp). Examples 1, 12, 166 and 238 were tested at a concentration of 20 μM, 10 μM, 1 μM and 1 μM respectively in the presence of 10 μM of ATP for examples 1 and 12 and at the concentrations of ATP shown in parentheses for examples 166 and 238. The results shown in Table VII correspond to percentage inhibition of the kinase tested in the presence of the compound, relative to a control effected without the compound.

The target of assay [2] is T2, cKit (h) (Homo sapiens, UniProt P10721).
T2 construct: purchased Upstate
Briefly: Upstate kinase panel: cKit. As for the experimental part:
as §1

Assay [3] deals with T3, cSRC (h) (Homo sapiens, UniProt P12931).
T3 construct: purchased Upstate
The experiment in a line: Upstate kinase panel: cSRC. How it is done:
as §1

The target of assay [4] is T4, EGFR (h) (Homo sapiens, UniProt P00533).
T4 construct: purchased Upstate
Briefly: Upstate kinase panel: EGFR. How it is done: as §1

In assay [5] the target is T5, Flt3 (h) (Homo sapiens, UniProt P36888).
T5 construct: purchased Upstate
T5 sequence (P36888 27-993): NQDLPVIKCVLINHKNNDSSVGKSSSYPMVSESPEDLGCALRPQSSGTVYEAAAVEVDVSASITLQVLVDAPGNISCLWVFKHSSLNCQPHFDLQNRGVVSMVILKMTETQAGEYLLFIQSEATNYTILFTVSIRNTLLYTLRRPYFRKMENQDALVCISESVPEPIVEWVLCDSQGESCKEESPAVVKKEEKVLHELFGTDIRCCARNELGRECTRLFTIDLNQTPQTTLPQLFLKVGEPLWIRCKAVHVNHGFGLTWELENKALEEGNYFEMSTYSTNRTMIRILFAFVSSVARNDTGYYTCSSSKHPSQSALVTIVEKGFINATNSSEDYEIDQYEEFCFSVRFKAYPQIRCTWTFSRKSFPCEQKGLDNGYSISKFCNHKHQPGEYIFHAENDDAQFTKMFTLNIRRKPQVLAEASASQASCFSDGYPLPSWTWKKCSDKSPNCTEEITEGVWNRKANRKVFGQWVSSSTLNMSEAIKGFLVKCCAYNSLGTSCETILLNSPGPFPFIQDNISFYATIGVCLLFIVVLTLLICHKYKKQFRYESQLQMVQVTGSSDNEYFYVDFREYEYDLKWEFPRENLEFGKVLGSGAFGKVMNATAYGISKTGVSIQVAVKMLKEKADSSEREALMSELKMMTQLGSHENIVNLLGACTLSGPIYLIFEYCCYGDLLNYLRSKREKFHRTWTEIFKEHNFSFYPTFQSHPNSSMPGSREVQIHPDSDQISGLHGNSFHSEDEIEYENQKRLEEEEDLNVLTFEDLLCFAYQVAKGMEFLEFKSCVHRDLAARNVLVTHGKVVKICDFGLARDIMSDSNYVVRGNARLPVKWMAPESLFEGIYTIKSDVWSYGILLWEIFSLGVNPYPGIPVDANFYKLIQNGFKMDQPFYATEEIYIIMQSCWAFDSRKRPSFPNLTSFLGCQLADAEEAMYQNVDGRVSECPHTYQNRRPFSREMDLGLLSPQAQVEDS
Briefly: Upstate kinase panel: Flt3. How it is done: as §1

Assay [6] has as its target T6, IKKβ (h) (Homo sapiens, UniProt O14920).
T6 construct: purchased Upstate
T6 sequence (O14920 1-756): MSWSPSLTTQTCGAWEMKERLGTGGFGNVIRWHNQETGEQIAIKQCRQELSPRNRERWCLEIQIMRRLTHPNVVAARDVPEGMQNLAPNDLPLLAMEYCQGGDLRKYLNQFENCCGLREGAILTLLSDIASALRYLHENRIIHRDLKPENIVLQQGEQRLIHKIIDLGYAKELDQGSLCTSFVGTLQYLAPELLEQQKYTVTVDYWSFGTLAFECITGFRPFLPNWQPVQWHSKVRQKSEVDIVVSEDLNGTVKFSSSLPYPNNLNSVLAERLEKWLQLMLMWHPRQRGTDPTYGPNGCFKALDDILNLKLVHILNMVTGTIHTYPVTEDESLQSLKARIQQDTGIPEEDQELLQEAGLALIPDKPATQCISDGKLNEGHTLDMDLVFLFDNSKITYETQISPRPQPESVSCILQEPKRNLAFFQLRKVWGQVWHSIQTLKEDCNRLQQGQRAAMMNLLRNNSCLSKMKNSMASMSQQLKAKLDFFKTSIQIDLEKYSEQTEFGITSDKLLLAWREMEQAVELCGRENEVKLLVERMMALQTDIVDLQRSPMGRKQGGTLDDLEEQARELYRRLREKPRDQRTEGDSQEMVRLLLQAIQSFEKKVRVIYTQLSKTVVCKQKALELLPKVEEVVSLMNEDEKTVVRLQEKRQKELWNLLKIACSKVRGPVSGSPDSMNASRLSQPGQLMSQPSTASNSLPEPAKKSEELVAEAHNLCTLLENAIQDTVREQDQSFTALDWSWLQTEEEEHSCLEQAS
The experiment in a line: Upstate kinase panel: IKKβ. How it is done:
as §1

The target in assay [7] is T7, KDR (h) (Homo sapiens, UniProt P35968).
T7 construct: purchased Upstate
The experiment in a line: Upstate kinase panel: KDR. How it is done: as §1

The mark [8] stands for this setting: compound 20 μM, 10 μM ATP, read-out: % inhibition at 20 μMol.
Setting [9] is: compound 10 μM, 10 μM ATP, read-out: % inhibition at 10 μMol.
[10] abbreviates: compound 1 μM, ATP (200), read-out: % inhibition at 1 μMol.
Setting [11] is: compound 1 μM, ATP (10), read-out: % inhibition at 1 μMol.

As usually defined, the inhibition is how much of the control response was suppressed.

T3 sequence (P12931 whole entry): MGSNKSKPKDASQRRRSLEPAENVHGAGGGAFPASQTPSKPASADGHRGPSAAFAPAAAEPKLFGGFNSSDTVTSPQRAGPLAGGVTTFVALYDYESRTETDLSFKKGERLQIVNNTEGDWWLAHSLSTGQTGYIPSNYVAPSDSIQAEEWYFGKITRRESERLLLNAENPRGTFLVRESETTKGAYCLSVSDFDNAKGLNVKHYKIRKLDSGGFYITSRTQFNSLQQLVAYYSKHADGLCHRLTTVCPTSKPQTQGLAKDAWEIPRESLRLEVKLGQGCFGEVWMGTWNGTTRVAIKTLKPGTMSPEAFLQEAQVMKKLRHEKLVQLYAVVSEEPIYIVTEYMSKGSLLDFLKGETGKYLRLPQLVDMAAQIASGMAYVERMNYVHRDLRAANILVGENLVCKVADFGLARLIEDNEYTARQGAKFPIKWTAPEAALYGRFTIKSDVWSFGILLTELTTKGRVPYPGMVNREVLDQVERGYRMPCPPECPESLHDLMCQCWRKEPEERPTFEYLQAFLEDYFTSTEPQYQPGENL
T4 sequence (P00533 25-1210): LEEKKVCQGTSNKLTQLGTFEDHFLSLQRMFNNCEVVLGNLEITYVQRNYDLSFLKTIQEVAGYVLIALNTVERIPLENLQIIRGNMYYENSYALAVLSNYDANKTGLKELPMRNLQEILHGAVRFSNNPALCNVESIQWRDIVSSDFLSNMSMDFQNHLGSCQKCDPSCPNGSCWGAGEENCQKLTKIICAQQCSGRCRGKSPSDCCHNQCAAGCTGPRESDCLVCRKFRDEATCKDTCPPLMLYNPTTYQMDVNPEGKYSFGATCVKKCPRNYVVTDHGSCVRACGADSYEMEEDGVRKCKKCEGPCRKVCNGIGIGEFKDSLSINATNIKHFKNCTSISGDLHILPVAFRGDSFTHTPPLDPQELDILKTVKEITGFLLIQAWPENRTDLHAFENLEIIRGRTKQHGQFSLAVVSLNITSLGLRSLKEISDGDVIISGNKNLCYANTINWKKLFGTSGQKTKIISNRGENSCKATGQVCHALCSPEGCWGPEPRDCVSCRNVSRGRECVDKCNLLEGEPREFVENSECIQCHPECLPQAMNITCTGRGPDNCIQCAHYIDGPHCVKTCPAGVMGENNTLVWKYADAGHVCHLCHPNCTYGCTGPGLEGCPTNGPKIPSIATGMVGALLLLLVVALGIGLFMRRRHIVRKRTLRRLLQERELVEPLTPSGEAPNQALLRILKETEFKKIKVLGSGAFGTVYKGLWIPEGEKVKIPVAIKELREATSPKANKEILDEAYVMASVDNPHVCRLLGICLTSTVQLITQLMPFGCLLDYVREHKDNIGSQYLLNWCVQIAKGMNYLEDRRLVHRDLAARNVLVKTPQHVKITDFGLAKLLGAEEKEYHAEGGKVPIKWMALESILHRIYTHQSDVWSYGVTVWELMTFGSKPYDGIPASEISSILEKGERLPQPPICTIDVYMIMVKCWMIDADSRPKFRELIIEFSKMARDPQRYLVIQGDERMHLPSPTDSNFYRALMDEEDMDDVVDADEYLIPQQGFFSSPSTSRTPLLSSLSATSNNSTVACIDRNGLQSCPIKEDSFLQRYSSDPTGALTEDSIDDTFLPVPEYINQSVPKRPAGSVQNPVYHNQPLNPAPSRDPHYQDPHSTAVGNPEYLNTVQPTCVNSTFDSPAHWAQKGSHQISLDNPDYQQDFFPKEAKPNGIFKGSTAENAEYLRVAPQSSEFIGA
T7 sequence (P35968 20-1356): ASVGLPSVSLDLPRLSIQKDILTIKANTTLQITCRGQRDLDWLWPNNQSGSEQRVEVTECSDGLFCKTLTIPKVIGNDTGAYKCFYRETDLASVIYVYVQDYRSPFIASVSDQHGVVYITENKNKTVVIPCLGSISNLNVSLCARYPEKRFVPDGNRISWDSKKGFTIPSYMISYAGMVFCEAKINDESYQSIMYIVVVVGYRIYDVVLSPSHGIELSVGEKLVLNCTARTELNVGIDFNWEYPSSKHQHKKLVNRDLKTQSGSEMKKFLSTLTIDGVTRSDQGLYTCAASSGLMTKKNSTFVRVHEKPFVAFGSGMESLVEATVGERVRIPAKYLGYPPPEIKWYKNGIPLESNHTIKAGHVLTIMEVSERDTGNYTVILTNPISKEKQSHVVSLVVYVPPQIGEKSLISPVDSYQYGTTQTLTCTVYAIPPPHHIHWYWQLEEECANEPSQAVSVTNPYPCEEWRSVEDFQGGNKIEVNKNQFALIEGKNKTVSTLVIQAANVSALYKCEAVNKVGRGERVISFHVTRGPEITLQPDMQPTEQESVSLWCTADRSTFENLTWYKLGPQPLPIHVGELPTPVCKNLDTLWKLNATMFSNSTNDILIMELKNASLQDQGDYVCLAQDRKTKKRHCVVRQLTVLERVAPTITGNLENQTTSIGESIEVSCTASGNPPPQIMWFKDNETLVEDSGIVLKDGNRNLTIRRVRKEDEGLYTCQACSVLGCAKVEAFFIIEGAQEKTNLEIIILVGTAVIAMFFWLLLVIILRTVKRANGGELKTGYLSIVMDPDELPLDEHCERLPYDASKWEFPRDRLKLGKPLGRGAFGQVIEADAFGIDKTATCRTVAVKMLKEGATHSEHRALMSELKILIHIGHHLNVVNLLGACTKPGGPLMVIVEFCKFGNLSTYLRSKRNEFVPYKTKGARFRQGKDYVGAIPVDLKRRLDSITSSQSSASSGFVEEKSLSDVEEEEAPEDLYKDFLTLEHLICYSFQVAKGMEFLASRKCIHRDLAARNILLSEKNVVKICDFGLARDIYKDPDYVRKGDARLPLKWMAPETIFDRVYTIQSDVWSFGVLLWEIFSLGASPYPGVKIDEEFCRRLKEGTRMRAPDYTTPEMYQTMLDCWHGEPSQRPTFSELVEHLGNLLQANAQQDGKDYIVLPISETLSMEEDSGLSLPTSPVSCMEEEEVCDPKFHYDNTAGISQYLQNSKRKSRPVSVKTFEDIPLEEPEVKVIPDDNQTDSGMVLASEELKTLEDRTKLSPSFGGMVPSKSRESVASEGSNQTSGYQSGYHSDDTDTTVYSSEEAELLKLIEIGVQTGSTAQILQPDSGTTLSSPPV
T2 sequence (P10721 26-976): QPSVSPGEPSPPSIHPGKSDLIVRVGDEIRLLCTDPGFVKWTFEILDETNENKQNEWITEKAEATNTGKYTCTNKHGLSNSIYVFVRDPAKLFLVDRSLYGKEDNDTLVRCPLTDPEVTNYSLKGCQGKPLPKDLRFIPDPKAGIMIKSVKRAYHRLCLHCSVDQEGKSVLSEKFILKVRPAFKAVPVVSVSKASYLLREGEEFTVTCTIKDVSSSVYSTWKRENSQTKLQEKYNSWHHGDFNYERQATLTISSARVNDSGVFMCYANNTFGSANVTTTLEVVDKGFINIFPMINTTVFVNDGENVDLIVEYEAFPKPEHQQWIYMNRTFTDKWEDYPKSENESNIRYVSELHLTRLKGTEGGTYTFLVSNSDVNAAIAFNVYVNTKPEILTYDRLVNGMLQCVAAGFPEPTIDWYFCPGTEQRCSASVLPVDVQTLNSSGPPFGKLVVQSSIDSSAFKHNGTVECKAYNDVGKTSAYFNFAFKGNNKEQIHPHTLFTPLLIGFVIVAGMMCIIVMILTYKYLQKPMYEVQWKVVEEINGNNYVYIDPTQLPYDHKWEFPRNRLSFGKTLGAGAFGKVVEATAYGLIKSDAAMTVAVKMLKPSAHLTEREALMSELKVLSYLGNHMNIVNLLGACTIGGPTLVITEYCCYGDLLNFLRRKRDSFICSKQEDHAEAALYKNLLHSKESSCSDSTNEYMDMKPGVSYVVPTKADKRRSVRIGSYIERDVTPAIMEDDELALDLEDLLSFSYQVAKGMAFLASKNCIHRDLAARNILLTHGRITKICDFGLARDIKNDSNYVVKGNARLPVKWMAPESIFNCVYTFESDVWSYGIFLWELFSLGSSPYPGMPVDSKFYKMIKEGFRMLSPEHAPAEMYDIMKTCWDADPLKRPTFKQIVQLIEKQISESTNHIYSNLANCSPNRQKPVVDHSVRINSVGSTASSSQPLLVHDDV

Take `CCOC(=O)c1c[nH]c2c(=O)[nH]c3ccccc3c12` [Compound 1, 4-Oxo-4,5-dihydro-3H-pyrrolo[2,3-c]quinoline-1-ethyl carboxylate]: the inhibition at 20 µM in assay [1] (setting [8]) came out at 16%; in assay [2] (setting [8]), 20%; in assay [3] (setting [8]), 86%; in assay [4] (setting [8]) it was 19%; in assay [5] (setting [8]), 91%; in assay [6] (setting [8]), 22%. In assay [7] (setting [8]), the inhibition at 20 µM came out at 100%.

On to `CCOC(=O)c1c[nH]c2c(=O)[nH]c3ccc(S(=O)(=O)Nc4ccc(F)cc4)cc3c12` [Compound 12, 8-(4-Fluorophenylsulfamoyl)-4-oxo-4,5-dihydro-3H-pyrrolo[2,3-c]quinoline-1-ethyl carboxylate], for which the inhibition at 10 µM in assay [1] (setting [9]) stood at 94%; in assay [2] (setting [9]) it was 45%; in assay [3] (setting [9]), 91%; in assay [4] (setting [9]), 13%; in assay [5] (setting [9]), 51%; in assay [6] (setting [9]), 0%. For the same molecule, the inhibition at 10 µM in assay [7] (setting [9]) turned out to be 69%.

Turning to `CCOC(=O)c1c[nH]c2c(=O)[nH]c3ccc(-c4cccc(S(C)(=O)=O)c4)cc3c12` [Compound 238, 8-(3-Methanesulfonyl-phenyl)-4-oxo-4,5-dihydro-3H-pyrrolo[2,3-c]quinoline-1-ethyl carboxylate], the inhibition at 1 µM in assay [1] (compound 1 μM, ATP (15), read-out: % inhibition at 1 μMol) came out at 24%; in assay [2] (setting [10]), 4%; in assay [3] (setting [10]) it was 7%; in assay [4] (setting [11]) it was 3%; in assay [5] (setting [10]), 0%; in assay [6] (setting [11]) it was 0%. Moreover, the inhibition at 1 µM in assay [7] (compound 1 μM, ATP (90), read-out: % inhibition at 1 μMol) is 21%.
